Laboratory results from ChEMBL document CHEMBL3425504, “Lead optimization of spiropyrazolopyridones: a new and potent class of dengue virus inhibitors” (ACS Med Chem Lett, 2015).
Values after ≈ are worked out from the molar mass of the structure shown. Active and inactive are the calls of the source. The rule behind the calls is not given here.

Legend:
[1] = system: dengue virus type 2; assay: Antiviral activity against dengue virus 2 TSV01 in AG129 mouse model of dengue viremia assessed as log reduction in virus plaques at 25 mg/kg, po BID for 3 days relative to untreated control; type: functional, organism-based; set-up: dose 25 mg/kg
[2] = system: dengue virus type 2; assay: Antiviral activity against dengue virus 2 infected in BHK21 cells incubated for 48 hrs by CFI assay; type: functional, organism-based; conditions: BHK-21, 48 h
[3] = Hepatic extraction ratio in mouse liver microsomes; type: ADME; conditions: read-out: ERH
[4] = Cytotoxicity against human HepG2 cells incubated for 96 hrs by CCK8 assay; type: cell-based
[5] = Half life in mouse liver microsomes; type: ADME
[6] = Lipophilicity, log P of the compound; type: physicochemical; conditions: octanol/water
[7] = Solubility in pH 6.8 buffer
[8] = Cmax in Wistar rat at 25 mg/kg, po after 0.17 to 24 hrs by LC-MS/MS method; type: ADME, organism-based; set-up: dose 25 mg/kg, route oral; conditions: in vivo
[9] = system: Rattus norvegicus; assay: Volume of distribution at steady state in Wistar rat at 5 mg/kg, iv after 0.17 to 24 hrs by LC-MS/MS method; conditions: in vivo
[10] = Absolute oral bioavailability in Wistar rat at 25 mg/kg after 0.17 to 24 hrs by LC-MS/MS method; type: ADME, organism-based; conditions: in vivo
[11] = AUC (0 to 24 hrs) in Wistar rat at 25 mg/kg, po after 0.17 to 24 hrs by LC-MS/MS method; type: ADME, organism-based; set-up: time < 24 hr, dose 25 mg/kg, route oral; conditions: plasma
[12] = system: dengue virus type 2; assay: Antiviral activity against dengue virus 2 infected in human A549 cells incubated for 48 hrs by viral titer reduction assay; type: functional, organism-based; conditions: A549, 48 h
[13] = Terminal half-life in Wistar rat at 5 mg/kg, iv after 0.17 to 24 hrs by LC-MS/MS method; conditions: in vivo, read-out: beta t1/2 (converted)
[14] = Tmax in Wistar rat at 25 mg/kg, po after 0.17 to 24 hrs by LC-MS/MS method; type: ADME, organism-based; set-up: dose 25 mg/kg, route oral; conditions: in vivo
[15] = Plasma clearance in Wistar rat at 5 mg/kg, iv after 0.17 to 24 hrs by LC-MS/MS method
[16] = system: dengue virus type 2; assay: Antiviral activity against dengue virus 2 TSV01 in AG129 mouse model of dengue viremia assessed as log reduction in virus plaques at 100 mg/kg, po QD for 3 days relative to untreated control
[17] = system: dengue virus type 2; assay: Antiviral activity against dengue virus 2 TSV01 in AG129 mouse model of dengue viremia assessed as log reduction in virus plaques at 50 mg/kg, po BID for 3 days relative to untreated control; type: functional

SMILES | EC50 [2] | CC50 at 96 h [4] | other results
C#C[C@@]1(O)[C@H](O)[C@@H](CO)O[C@H]1n1ccc2c(N)ncnc21 |  |  | inhibition [1]: Active
O=C1C[C@]2(C(=O)Nc3ccc(Cl)cc32)c2cnn(Cc3ccc(C(F)(F)F)cc3)c2N1 | 21 nM | > 10 µM | hepatic extraction ratio [3]: 0.49; half-life [5]: 62 min; logP [6]: 4.1; solubility [7]: 27 µM (≈ 12.1 µg/mL)
O=C1CC2(C(=O)Nc3ccc(Br)cc32)c2cnn(Cc3ccc(Cl)cc3)c2N1 (racemic) | 50 nM | > 10 µM | 
O=C1CC2(C(=O)Nc3ccc(Cl)cc32)c2cnn(Cc3ccccc3Cl)c2N1 (racemic) | 1700 nM | > 10 µM | 
O=C1Nc2ccc(Cl)cc2C12CCNc1c2cnn1Cc1ccc(Cl)cc1 (racemic) | 4000 nM | 8.1 µM | 
COc1ccc(Cn2ncc3c2NC(=O)CC32C(=O)Nc3ccc(Cl)cc32)cc1 (racemic) | 6200 nM | > 10 µM | 
O=C1CC2(C(=O)Nc3ccc(Cl)cc32)c2cnn(CC3CCC(F)(F)CC3)c2N1 (racemic) | 22500 nM | > 10 µM | 
O=C1C[C@]2(C(=O)Nc3ccc(Cl)cc32)c2cnn(Cc3ccc(Cl)cn3)c2N1 | 230 nM | 33 µM | hepatic extraction ratio [3]: 0.71; Cmax [8]: 3860 ng/mL; FC [16]: 1.9; half-life [5]: 24 min; Vdss [9]: 3 L/kg; bioavailability [10]: 63%; AUC(0-t) at 24 h [11]: 13800 ng·h/mL; EC50 [12]: 42 nM; FC [17]: 1.9; logP [6]: 2.8; solubility [7]: 504 µM (≈ 209 µg/mL); half-life [13]: 78 min; Tmax [14]: 0.17 h; clearance [15]: 18.8 mL/min/kg
CN1C(=O)C2(CC(=O)Nc3c2cnn3Cc2ccc(Cl)cc2)c2cc(Cl)ccc21 (racemic) | 11 nM | > 10 µM | 
O=C1CC2(CNc3ccc(Cl)cc32)c2cnn(Cc3ccc(Cl)cc3)c2N1 (racemic) | 1100 nM | > 10 µM | 
O=C1CC2(C(=O)Nc3ccc(Cl)cc32)c2cnn(Cc3ncc(Cl)cn3)c2N1 (racemic) | 85300 nM | > 10 µM | 
O=C1C[C@@]2(C(=O)Nc3ccc(Cl)cc32)c2cnn(Cc3ccc(C(F)(F)F)cc3)c2N1 | 3900 nM | > 10 µM | 
CN1C(=O)CC2(C(=O)Nc3ccc(Cl)cc32)c2cnn(Cc3ccc(Cl)cc3)c21 (racemic) | 420 nM | > 10 µM | 
O=C1CC2(C(=O)Nc3ccc(Cl)cc32)c2cnn(CCc3ccc(Cl)cc3)c2N1 (racemic) | 7200 nM | > 10 µM | 
O=C1C[C@@]2(C(=O)Nc3ccc(Cl)cc32)c2cnn(Cc3ccc(Cl)cn3)c2N1 | 18400 nM | > 10 µM | 
O=C1CC2(C(=O)Nc3ccc(Cl)cc32)c2cnn(Cc3ccc(C(F)(F)F)cc3)c2N1 (racemic) | 25 nM | > 10 µM | 
O=C1CC2(C(=O)Nc3ccc(Cl)cc32)c2cnn(Cc3ccc(Cl)nc3)c2N1 (racemic) | 32800 nM | > 10 µM | 

Now from value to molecule, other results behind:

EC50 [2] | SMILES | CC50 at 96 h [4] | other results
2710 nM | O=C1C[C@@]2(C(=O)Nc3ccc(Cl)cc32)c2cnn(Cc3ccc(Cl)cc3)c2N1 |  | 
12 nM | O=C1C[C@]2(C(=O)Nc3ccc(Cl)cc32)c2cnn(Cc3ccc(Cl)cc3)c2N1 | > 10 µM | hepatic extraction ratio [3]: 0.66; Cmax [8]: 780 ng/mL; half-life [5]: 31 min; Vdss [9]: 4.3 L/kg; bioavailability [10]: 33%; AUC(0-t) at 24 h [11]: 9500 ng·h/mL; EC50 [12]: 12 nM; logP [6]: 4.9; solubility [7]: 11 µM (≈ 4.55 µg/mL); half-life [13]: 228 min; Tmax [14]: 2 h; clearance [15]: 15.1 mL/min/kg
670 nM | O=C1CC2(C(=O)Nc3ccc(Cl)cc32)c2cnn(Cc3ccc(Cl)cn3)c2N1 (racemic) | 33 µM | 
3900 nM | O=C1CC2(C(=O)Nc3ccc(Cl)cc32)c2cnn(Cc3cccc(Cl)c3)c2N1 (racemic) | > 10 µM | 
32500 nM | O=C1CC2(C(=O)Nc3ccc(Cl)cc32)c2cnn(-c3ccc(Cl)cc3)c2N1 (racemic) | > 10 µM | 
1300 nM | O=C1CC2(C(=O)Nc3ccc(C(F)(F)F)cc32)c2cnn(Cc3ccc(Cl)cc3)c2N1 (racemic) | > 10 µM | 
6 nM | CN1C(=O)[C@]2(CC(=O)Nc3c2cnn3Cc2ccc(Cl)cc2)c2cc(Cl)ccc21 | > 10 µM | hepatic extraction ratio [3]: 0.91; half-life [5]: 5.8 min; logP [6]: 4.6; solubility [7]: 161 µM (≈ 68.8 µg/mL)
51 nM | O=C1CC2(C(=O)Nc3ccc(Cl)cc32)c2cnn(Cc3ccc(Cl)cc3)c2N1 (racemic) |  | 
2300 nM | COc1ccc2c(c1)C1(CC(=O)Nc3c1cnn3Cc1ccc(Cl)cc1)C(=O)N2 (racemic) | > 10 µM | 
772 nM | CN1C(=O)[C@@]2(CC(=O)Nc3c2cnn3Cc2ccc(Cl)cc2)c2cc(Cl)ccc21 | > 10 µM | 
